Consider 2 compounds from patent publication US20230085307A1, “PYRIDAZINONE COMPOUND AND HERBICIDE” (NISSAN CHEMICAL CORPORATION, priority 2019, published 2023).

One assay relates to Japanese bulrush. The assay is described as follows: Test Example 1: herbicidal activity, application before weed generation under submerged conditions (Table 16, symbol B). The assay is classed as in vivo, Japanese bulrush (Schoenoplectus juncoides). The following applies: 320 g/ha applied herbicide. From the text: (§1) [Test Example 1] Herbicidal Activity Test by Application before Weed Generation under Submerged Conditions After alluvial soil was placed into 1/10000 are of Wagner pot, water was poured and mixed to form a submerged condition having a water depth of 4 cm. Seeds of late watergrass, Japanese bulrush, and oval-leafed pondweed were sowed in a mixed manner in the aforementioned pot, and then 2.5 leaf stage rice plant seedlings were transplanted thereto. On the day of sowing seeds, the emulsion agent of the compound of the present invention prepared according to Formulation Example 2 was diluted with water so as to achieve a predetermined herbicide amount, and the diluted emulsion agent was applied to the surface of the water. The pot was placed in a greenhouse at 25° C. to 30° C. for growth of the plants. Three weeks after the herbicide application, the effect of the herbicide on each plant was evaluated according to the following criteria. Evaluation Criteria 5: Herbicidal rate of 90% or more (almost completely withered) 4: Herbicidal rate of 70% or more and less than 90% 3: Herbicidal rate of 40% or more and less than 70% 2: Herbicidal rate of 20% or more and less than 40% 1: Herbicidal rate of 5% or more and less than 20% 0: Herbicidal rate of 5% or less (almost no effect)

Another assay concerns rice flat sedge. The assay can be described thus: Test Example 3: herbicidal effect by foliage application, Wagner pot (Table 18, symbol E). The assay is classed as in vivo, rice flat sedge (Cyperus iria). The following applies: amount of applied herbicide 320 g/ha. In short, it runs like this:
(§2)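 Plants were sown in alluvial soil held under 0.1–0.5 cm standing water and grown 14 days in a greenhouse at 25–30 °C. An emulsifiable formulation, water-diluted to the set dose, was then sprayed onto the foliage, and effects were scored three weeks later using previously defined criteria.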

The test system of another assay is oval-leafed pondweed. The assay is described as follows: Test Example 1: herbicidal activity, application before weed generation under submerged conditions (Table 16, symbol C). The assay is classed as in vivo, oval-leafed pondweed (Monochoria vaginalis). The following applies: 320 g/ha applied herbicide.
Text: as §1

A further assay concerns barnyard grass. The assay can be described thus: Test Example 3: herbicidal effect by foliage application, Wagner pot (Table 18, symbol H). It counts as in vivo, barnyard grass (Echinochloa crus-galli). The following applies: amount of applied herbicide 320 g/ha. In short, it runs like this:
as §2

The subject of the next assay is Chinese sprangletop. The assay is described as follows: Test Example 3: herbicidal effect by foliage application, Wagner pot (Table 18, symbol D). The conditions noted are these: amount of applied herbicide 320 g/ha. The assay is classed as in vivo, chinese sprangletop (Leptochloa chinensis). In short, it runs like this: as §2
Another assay deals with late watergrass. The assay is described as follows: Test Example 1: herbicidal activity, application before weed generation under submerged conditions (Table 16, symbol A). The assay is classed as in vivo, late watergrass (Echinochloa oryzicola). The conditions noted are these: 320 g/ha applied herbicide.
Text: as §1

In the case of `CC[S+]([O-])Cc1ccc(-c2sc3ccc(F)cc3c2-c2c(O)c(C)nn(C)c2=O)cc1` (stereo not drawn) [2-333], the “Herbicidal effect on B: Japanese bulrush (grade 0-5)” value in the assay on Japanese bulrush is given as 0 (Herbicidal rate of 5% or less (almost no effect)). Also, the “herbicidal effect on E: rice flat sedge” value with rice flat sedge is 5 (Herbicidal rate of 90% or more (almost completely withered)). Moreover, in the assay on oval-leafed pondweed, the “Herbicidal effect on C: oval-leafed pondweed (grade 0-5)” value is on record as 0 (Herbicidal rate of 5% or less (almost no effect)). The “herbicidal effect on H: barnyard grass” value in the assay on barnyard grass is given as 5 (Herbicidal rate of 90% or more (almost completely withered)). Also, the “herbicidal effect on D: Chinese sprangletop” value with Chinese sprangletop was 2 (Herbicidal rate of 20% or more and less than 40%). In addition, the “Herbicidal effect on A: late watergrass (grade 0-5)” value in the assay on late watergrass is 2 (Herbicidal rate of 20% or more and less than 40%).
Take `CCS(=O)(=O)Cc1ccc(-c2sc3ccc(F)cc3c2-c2c(O)c(C)nn(C)c2=O)cc1` [2-335]: the “Herbicidal effect on B: Japanese bulrush (grade 0-5)” value in the assay on Japanese bulrush is 0 (Herbicidal rate of 5% or less (almost no effect)). Moreover, the “herbicidal effect on E: rice flat sedge” value in the assay with rice flat sedge is 5 (Herbicidal rate of 90% or more (almost completely withered)). Moreover, the “Herbicidal effect on C: oval-leafed pondweed (grade 0-5)” value in the assay on oval-leafed pondweed was 0 (Herbicidal rate of 5% or less (almost no effect)). Further, the “herbicidal effect on H: barnyard grass” value in the assay on barnyard grass is recorded as 5 (Herbicidal rate of 90% or more (almost completely withered)). In addition, the “herbicidal effect on D: Chinese sprangletop” value with Chinese sprangletop is 3 (Herbicidal rate of 40% or more and less than 70%). The “Herbicidal effect on A: late watergrass (grade 0-5)” value in the assay on late watergrass is 3 (Herbicidal rate of 40% or more and less than 70%).
